# Key:
# [1] = Toxicity in brine shrimp larvae; type: organism-based; conditions: artemia, in vivo
# P388 = assay: Cytotoxicity against mouse P388 cells; type: functional; conditions: read-out: ED50 (the source's name)
smiles,measurement,setting,value
"CC(O)C#CC#CC#CC#CCCCCCCCC(=O)O (single isomer, unassigned; (-))",LC50,[1],5.06 µg/mL
same,EC50,P388,0.53 µg/mL

# — ChEMBL document CHEMBL1147280, “Isolation Of A Novel Cytotoxic Polyacetylene From A Traditional Anthelmintic Medicinal Plant, Minquartia guianensis” (J Nat Prod, 1989)
